Residues, ends and D or L forms follow the SMILES beside them. No end group written: not given here. *: point of attachment. Cbz = O=C(OCc1ccccc1)*
Experiments:
[1] = test system: cortical neuronal cultures; assay: Sublethal stretch injury with or without NMDA, cell death in cortical cultures; assay type: cell-based
Protocol: […]. In brief, cerebral cortices from 10 to 12 embryos were incubated for 10 min in 0.05% trypsin-EDTA, dissociated by trituration, and plated on flexible membranes coated with poly-L-ornithine in 6 well plates (Flexcell International Corporation, Hillsborough, N.C.) at a density of 3.25×10^6 cells per well. Plating medium consisted of DMEM supplemented with 10% heat-inactivated horse serum (Gibco) and (in mM) 2 glutamine, 25 glucose, and 26 bicarbonate. The cultures were maintained at 37° C. in a humidified 5% CO2 atmosphere. After 3 days in vitro, growth of non-neuronal cells was halted by a 48 h exposure to 10 μM FDU-solution (5 μM uridine, 5 μM (+)-5-fluor-2′-deoxyuridine). This produces cultures in which >85% of the cells are neurons, based on immunohistochemical staining for glial fibrillary associated protein (exclusive to astrocytes), and for the NMDAR1 subunit (not shown). The cultures were used for experiments after 12-14 days in vitro.
The cultures, grown on silastic membranes as above, were placed in the Flexercell® FX-3000™ Strain Unit (Flexcell Int., Inc.), a computer-driven instrument that uses a vacuum pulse to deform the culture substrate. In all experiments, the cortical cultures were stretched to 130% of their original length for 1 s, inducing a sublethal injury as recently characterized by us (Arundine et al., 2003). The stretched neurons maintained cell membrane integrity, viability, and electrophysiological function.
Cell death was determined by serial quantitative measurements of propidium iodide (PI) fluorescence using a multiwell plate fluorescence scanner (Cytofluor II, PerSeptive Biosytems, Framingham, Mass., USA) as described previously (Sattler et al., 1997; Sattler et al., 1998). In brief, the culture medium in each tissue culture well was replaced with control solution containing 50 μg/ml PI, and a baseline fluorescence reading was taken. Sequential readings were then taken at appropriate intervals over the 20 h observation period. The fraction of dead cells in each culture at a given time was calculated as: Fraction dead=(Ft−Fo)/FNMDA Where Ft=PI fluorescence at time t, F0=initial PI fluorescence at time zero and FNMDA=background subtracted PI fluorescence of identical cultures from the same dissection and plating, 20-24 h after a 60 min exposure to 1 mM NMDA at 37° C. Based on manual observations at the time of validation of this technique, this NMDA exposure routinely produced near complete neuronal death in each culture but had no effect on surrounding glia (also see (Bruno et al., 1994; David et al., 1996; Sattler et al., 1997)). Adding Triton X-100 (0.1%) to cultures treated in this manner produced an additional 10-15% increase in PI fluorescence due to permeabilization of non-neuronal cell membranes, consistent with a 10-15% glial component in the cultures.
All experiments were performed at 37° C. Unless otherwise indicated, all solutions contained nimodipine (2 μM) and CNQX (10 μM) to restrict the actions of applied NMDA to NMDARs by preventing the secondary activation of other pathways (Sattler et al., 1998). In general, the cultures were washed ×2 with control solution and immediately stretched to 130% of their original length for 1 s. After the stretch, they were washed ×1 with control solution alone or challenged with an additional treatment (e.g., NMDA) and placed at 37° C. for 1 h. They were then washed ×1 with control solution and then with control solution containing 50 μg/ml PI to obtain a baseline reading. In pilot studies, baseline readings obtained at this stage were similar to those obtained by staining the cells with PI prior to stretch. As the stretch causes splashing of the bath solution, staining with PI after stretch reduced biohazard potential and artifacts associated with PI outside the culture well. Unstretched controls were manipulated identically to stretched cultures.

[2] = test system: cultured cortical neurons; assay: NMDA excitotoxicity in cultured cortical neurons (propidium iodide fluorescence); assay type: cell-based, mouse
[3] = test system: cortical neuronal cultures; assay: DNA fragmentation assays (TUNEL, DNA gel electrophoresis); assay type: cell-based, mouse; settings: 20 h post-insult; 200 μM MnTBAP or 100 μM L-NAME
Source text: DNA fragmentation was examined using the terminal deoxynucleotidyl transferase-mediated end nick labeling (TUNEL) method (Gavrieli et al., 1992; Didenko and Hornsby, 1996; Didenko et al., 1998) and by DNA agarose gel electrophoresis (Hill et al., 2000).
TUNEL Assay: Nuclear DNA strand breaks were detected by enzymatically labeling free 3′-OH termini with modified nucleotides provided in the Apoptag kit (Intergen) using the manufacturer's instructions. Visualization of TUNEL-stained nuclei was achieved using an anti-digoxigenin antibody conjugated to a fluorescein or peroxidase reporter molecule (ApopTag Peroxidase Kits S7110 and S7100, respectively, Intergen). In fluorescence experiments, nuclei were counterstained using 5 ng/ml Hoechst 33258 (1:5000, Transduction Labs), and visualized using 465-495 nm excitation and 515-555 nm emission for fluorescein and 340 nm excitation and 510-40 nm emission for Hoechst. The number of TUNEL positive cells was expressed as a fraction of the total cell number in the field. In each culture, 4-8 random fields were quantified. Approximately 100-200 cells were counted per culture, and at least 3 experiments were performed for each set of counts.
DNA Gel Electrophoresis: DNA laddering was evaluated as described elsewhere (Hill et al., 2000). In brief, all tissue was collected from each culture well and pelleted by centrifugation (1000 rpm; 1 min). The cells were digested for 2 h at 56° C. in buffer containing (in mM) 10 Tris pH 8.0, 2 EDTA pH8, 400 NaCl, 0.5% SDS, 1 mg/ml proteinase K. Digest solution was subjected to phenol/chloroform extraction and total DNA was precipitated from the aqueous layer with an equal volume of 100% ethanol. The DNA pellet was dried, dissolved in 50 μl ddH20 and kept overnight at 4° C. 10 μg DNA was prepared on a 2% agarose gel. Gels were stained with ethidium bromide and photographed.

[4] = Physiological variables in pre-treatment MCAO study; assay type: in vivo, Sprague-Dawley rats
Protocol: Next, I examined whether pretreatment with Tat-peptides would reduce stroke damage. Experiments were carried out in adult male Sprague-Dawley rats subjected to transient middle cerebral artery occlusion (MCAO) for 90 minutes by the intraluminal suture method (36,37). Animals were fasted overnight and injected with atropine sulfate (0.5 mg/kg IP). After 10 minutes anesthesia was induced with 3.5% halothane in a mixture of nitrous oxide and oxygen (Vol. 2:1) and maintained with 0.8% halothane. Rats were orally intubated, mechanically ventilated, and paralyzed with pancuronium bromide (0.6 mg/kg IV). Body temperature was maintained at 36.5-37.5° C. with a heating lamp. Polyethylene catheters in the femoral artery and vein were used to continuously record blood pressure and to sample blood for gas and pH measurements. […] This produces an extensive infarction encompassing the cerebral cortex and basal ganglia. […] Physiological parameters (body temperature, blood pressure, blood gases) were monitored and maintained throughout the experiment (Table 1). All experimental manipulations and analyses of data were performed by individuals blinded to the treatment groups. The extent of cerebral infarction was measured 24 h after MCAO onset (FIG. 7C inset). The postural reflex test (38), and the forelimb placing test (39) were used to grade neurological function on a scale of 0 to 12 (normal=0; worst=12) during MCAO (at 50 minutes) and 24 h thereafter.

[5] = Physiological variables in post-treatment MCAO study; assay type: in vivo, Sprague-Dawley rats
Protocol: Next, I examined whether treatment with Tat-NR2B9c could attenuate ischemic neuronal damage in-vivo when given after stroke onset. […] Infarction volume and neurological outcome measurements were performed at times identical to the pre-treatment study. Body temperature, blood pressure and blood gases were monitored throughout the 24 h experiment and maintained equivalent between groups (Table 2).

[6] = test system: transient unilateral middle cerebral artery occlusion; settings: MCAO 90 min

CC(C)[C@H](NC(=O)OCc1ccccc1)C(=O)N[C@H](C=O)Cc1ccccc1 [Calpain inhibitor III, z-val-phe-CHO] (Cbz-Val-Phe-aldehyde)
heightened vulnerability of stretched neurons to NMDA ([1]; 10 μM): not reduced
toxic effects in control or stretched cultures ([1]; 10 μM): no toxic effects
protection of cells challenged with 30 μM or 1 mM NMDA ([1]; 10 μM, whether or not stretched): slightly protected

COC(=O)[C@@H](N)CCCNC(=N)N[N+](=O)[O-] [L-NAME, N^G-nitro-L-arginine methyl ester]
protection against NMDA toxicity ([2]; cultured cortical neurons): protected
enhanced vulnerability of stretched neurons to NMDA ([1]; 100 μM, 30 min preincubation): completely eliminated the enhanced vulnerability
toxicity of 30 μM NMDA in unstretched neurons ([1]; 100 μM, 30 min preincubation): reduced the toxicity
DNA laddering after stretch followed by NMDA [3]: virtually abolished
TUNEL staining after stretch followed by NMDA [3]: virtually abolished

YGRKKRRQRRRKLSSIEADA [Tat-NR2B-AA, reference compound]
Body Temperature ([4]; After MCAo (15 min)): 36.8 ± 0.08 °C
Body Temperature ([4]; After MCAo (24 hr)): 37.0 ± 0.25 °C
Body weight ([4]; After MCAo (24 hr)): 244 ± 6 g
Body Temperature ([4]; Before MCAo(15 min)): 36.6 ± 0.15 °C
MABP ([4]; Before MCAo(15 min)): 115 ± 5 mmHg
Blood gases PCO2 ([4]; Before MCAo(30 min)): 39.1 ± 1.4 mmHg
Blood gases PH ([4]; Before MCAo(30 min)): 7.44 ± 0.02
Blood gases PO2 ([4]; Before MCAo(30 min)): 110 ± 7 mmHg
Body Temperature ([4]; Before MCAo(30 min)): 36.5 ± 0.12 °C
MABP ([4]; Before MCAo(30 min)): 110 ± 4 mmHg
Body Temperature ([4]; Before MCAo(45 min)): 36.7 ± 0.17 °C
MABP ([4]; Before MCAo(45 min)): 115 ± 5 mmHg
Body weight ([4]; Before anesthesia): 273 ± 7 g
Blood gases PCO2 ([4]; During MCAo (5 min)): 39.6 ± 0.5 mmHg
Blood gases PH ([4]; During MCAo (5 min)): 7.44 ± 0.02
Blood gases PO2 ([4]; During MCAo (5 min)): 109 ± 4 mmHg
Body Temperature ([4]; During MCAo (5 min)): 36.6 ± 0.17 °C
MABP ([4]; During MCAo (5 min)): 135 ± 7 mmHg
Body Temperature ([4]; During MCAo (15 min)): 36.7 ± 0.15 °C
MABP ([4]; During MCAo (15 min)): 111 ± 6 mmHg
Body Temperature ([5]; After MCAo (15 min)): 36.9 ± 0.23 °C
MABP ([5]; After MCAo (15 min)): 116 ± 4 mmHg
Body Temperature ([5]; After MCAo (24 hr)): 36.7 ± 0.27 °C
Body weight ([5]; After MCAo (24 hr)): 276 ± 6 g
Blood gases PCO2 ([5]; Before MCAo(15 min)): 37.9 ± 1.1 mmHg
Blood gases PH ([5]; Before MCAo(15 min)): 7.45 ± 0.01
Blood gases PO2 ([5]; Before MCAo(15 min)): 113 ± 4 mmHg
Body Temperature ([5]; Before MCAo(15 min)): 36.7 ± 0.07 °C
MABP ([5]; Before MCAo(15 min)): 103 ± 6 mmHg
Body weight ([5]; Before anesthesia): 301 ± 5 g
Blood gases PCO2 ([5]; During MCAo (15 min)): 48.0 ± 1.2 mmHg
Blood gases PH ([5]; During MCAo (15 min)): 7.46 ± 0.01
Blood gases PO2 ([5]; During MCAo (15 min)): 108 ± 2 mmHg
Body Temperature ([5]; During MCAo (15 min)): 36.7 ± 0.11 °C
MABP ([5]; During MCAo (15 min)): 121 ± 5 mmHg
Body Temperature ([5]; During MCAo (60 min)): 37.0 ± 0.31 °C
MABP ([5]; During MCAo (60 min)): 149 ± 4 mmHg
Body Temperature ([5]; During MCAo (65 min)): 37.0 ± 0.29 °C
MABP ([5]; During MCAo (65 min)): 136 ± 5 mmHg
toxic effects in control or stretched cultures ([1]; 50 nM): no toxic effects
Mean (SE) core temperature during surgery [6]: 37.2 (∀0.2)
Mean (SE) core temperature subsequent to surgery [6]: 37.3 (∀0.1)
Mean (SE) systolic blood pressure during surgery [6]: 109 (∀5.9)
Mean (SE) systolic blood pressure prior to surgery [6]: 113 (∀8.8)
Mean (SE) systolic blood pressure subsequent to surgery [6]: 115 (∀5.9)
Mean (SE) core temperature prior to surgery ([6]; drug i.v. 3 hours after onset of ischemia): 36.9 (∀0.1)

B1: pTat-GK: Tat fusion protein containing residues 534-724 of PSD-95, guanylate-kinase homology domain; control (protein)
chain: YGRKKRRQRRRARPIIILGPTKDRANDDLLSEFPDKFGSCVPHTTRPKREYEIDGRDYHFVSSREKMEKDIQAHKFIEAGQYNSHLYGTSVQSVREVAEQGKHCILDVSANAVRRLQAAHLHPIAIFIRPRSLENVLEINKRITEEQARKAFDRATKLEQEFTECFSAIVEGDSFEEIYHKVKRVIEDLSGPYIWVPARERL
modifications: left off: small tags and cut ends
notes: Tat fusion protein containing residues 534-724 of PSD-95, guanylate-kinase homology domain; control
NMDA-evoked cell death, pre-treatment ([2]; 50 nM for 1 h, then NMDA 0-100 μM 1 h, 20 h observation): had no effect
enhanced cell mortality in stretched neurons by NMDA challenge, post-treatment ([1]; 50 nM applied after terminating the 1 h NMDA challenge): ineffective
